Assay results from paper PMC6219668 (Oncotarget, 2018).

Test system: panel of nearly 500 cancer cell lines
Experiment: Cancer Cell Line Encyclopedia profiling, 3-day CellTiter-Glo
Assay type: cell-based
Parameters: Amax: unit not given here

CC(=O)c1c(C)c2cnc(Nc3ccc(N4CCNCC4)cn3)nc2n(C2CCCC2)c1=O [Palbociclib, reference compound]
EC50 (Homo sapiens, P3HR-1): > 8 µM | EC50 (Homo sapiens, P31-FUJ): > 8 µM | EC50 (Homo sapiens, PANC-03-27): > 8 µM | EC50 (Homo sapiens, PLC-PRF-5): 1.79 µM | EC50 (Homo sapiens, Panc 02.03): 1.14 µM | EC50 (Homo sapiens, Panc 04.03): > 8 µM | EC50 (Homo sapiens, Panc1005): > 8 µM | EC50 (Homo sapiens, Pfeiffer): 6.95 µM | EC50 (Homo sapiens, RL95-2): > 8 µM | EC50 (Homo sapiens, RT-112): 2.29 µM | EC50 (Homo sapiens, RVH-421): 0.689 µM | EC50 (Homo sapiens, Raji): > 8 µM | EC50 (Homo sapiens, SAOS-2): > 8 µM | EC50 (Homo sapiens, SBC-5): 1.11 µM | EC50 (Homo sapiens, SCC-25): 0.782 µM | EC50 (Homo sapiens, SCaBER): > 8 µM | EC50 (Homo sapiens, SF-126): > 8 µM | EC50 (Homo sapiens, SF-295): > 8 µM | EC50 (Homo sapiens, SHP77): > 8 µM | EC50 (Homo sapiens, SJRH30): > 8 µM | EC50 (Homo sapiens, SJSA-1): > 8 µM | EC50 (Homo sapiens, SK-BR-3): > 8 µM | EC50 (Homo sapiens, SK-CO-1): > 8 µM | EC50 (Homo sapiens, SK-ES1): 6.37 µM | EC50 (Homo sapiens, SK-HEP1): 0.516 µM | EC50 (Homo sapiens, SK-LU-1): > 8 µM | EC50 (Homo sapiens, SK-MEL-2): > 8 µM | EC50 (Homo sapiens, SK-MEL-5): > 8 µM | EC50 (Homo sapiens, SK-MEL-24): > 8 µM | EC50 (Homo sapiens, SK-MEL-30): > 8 µM | EC50 (Homo sapiens, SK-MM-2): 2.62 µM | EC50 (Homo sapiens, SK-N-AS): 1.11 µM | EC50 (Homo sapiens, SK-N-DZ): 2.73 µM | EC50 (Homo sapiens, SK-N-SH): 1.25 µM | EC50 (Homo sapiens, SK-OV-3): 2.22 µM | EC50 (Homo sapiens, SKNBE2): 4.99 µM | EC50 (Homo sapiens, SNU1): > 8 µM | EC50 (Homo sapiens, SNU-16): > 8 µM | EC50 (Homo sapiens, SNU-182): > 8 µM | EC50 (Homo sapiens, SNU-423): 2.01 µM | EC50 (Homo sapiens, SNU-449): > 8 µM | EC50 (Homo sapiens, SNU-C2B): > 8 µM | EC50 (Homo sapiens, SU-DHL10): 3.42 µM | EC50 (Homo sapiens, SU-DHL-8): 0.475 µM | EC50 (Homo sapiens, SU.86.86): > 8 µM | EC50 (Homo sapiens, SUP-T1): > 8 µM | EC50 (Homo sapiens, SW48): > 8 µM | EC50 (Homo sapiens, SW480): 1.24 µM | EC50 (Homo sapiens, SW780): 0.832 µM | EC50 (Homo sapiens, SW900): > 8 µM | EC50 (Homo sapiens, SW1353): > 8 µM | EC50 (Homo sapiens, SW1990): 5.78 µM | EC50 (Homo sapiens, SW-403): > 8 µM | EC50 (Homo sapiens, SW-620): 2.93 µM | EC50 (Homo sapiens, T47D): > 8 µM | EC50 (Homo sapiens, T98G): > 8 µM | EC50 (Homo sapiens, TCC-SUP): 2.08 µM | EC50 (Homo sapiens, TOV21G): > 8 µM | EC50 (Homo sapiens, TOV112D): 2.03 µM | EC50 (Homo sapiens, Toledo): > 8 µM | EC50 (Homo sapiens, U2OS): 3.62 µM | EC50 (Homo sapiens, U-87 MG): 2.01 µM | EC50 (Homo sapiens, U-118-MG): 0.523 µM | EC50 (Homo sapiens, U-937): > 8 µM | EC50 (Homo sapiens, UACC-812): > 8 µM | EC50 (Homo sapiens, UMUC3): > 8 µM | EC50 (Homo sapiens, YKG-1): 7.39 µM | EC50 (Homo sapiens, ZR-75-30): > 8 µM | EC50 (Hs766T): 1.52 µM | EC50 (IGR-39): > 8 µM | EC50 (JHH-2): > 8 µM | EC50 (JHH-4): > 8 µM | EC50 (JMSU-1): 1.32 µM | EC50 (KE-97): 2.26 µM | EC50 (KMRC-1): > 8 µM | EC50 (KMS-26): 1.33 µM | EC50 (LOU-NH91): > 8 µM | EC50 (LUDLU-1): 0.74 µM | EC50 (NCI-H322): > 8 µM | EC50 (NCI-H1568): 2.63 µM | EC50 (NCI-H1915): > 8 µM | EC50 (NCI-H2023): 1.12 µM | EC50 (NCI-H2172): > 8 µM | EC50 (OCUM1): 1.37 µM | EC50 (OE21): 4.75 µM | EC50 (ONCO-DG-1): > 8 µM | EC50 (PK-59): 1.51 µM | EC50 (PL45): > 8 µM | EC50 (SH-10-TC): > 8 µM | EC50 (SUIT-2): 1.18 µM | EC50 (SUP-M2): > 8 µM | EC50 (SW579): 1.3 µM | EC50 (SW1271): > 8 µM | EC50 (TC-71): > 8 µM | Amax (a172 (central_nervous_system)): 3.605 | Amax (a204 (soft_tissue)): -34.4227 | Amax (a253 (salivary_gland)): 3.868 | Amax (a375 (skin)): -26.2658 | Amax (a2058 (skin)): 2.616 | Amax (a2780 (ovary)): -39.663 | Amax (gb1 (central_nervous_system)): -42.437 | Amax (gciy (stomach)): -7.059 | Amax (gct (soft_tissue)): -52.5722 | Amax (glc82 (lung)): -19.1977 | Amax (gms10 (central_nervous_system)): -27.0424 | Amax (h4 (central_nervous_system)): -32.9184 | Amax (hcc15 (lung)): -12.0125 | Amax (hcc56 (large_intestine)): -4.352 | Amax (hcc70 (breast)): -11.029 | Amax (hcc78 (lung)): -19.9044 | Amax (hcc1187 (breast)): -9.361 | Amax (hcc1569 (breast)): -39.1174 | Amax (hcc1806 (breast)): 0.7921 | Amax (hcc1954 (breast)): -54.5847 | Amax (hcc2935 (lung)): -14.5087 | Amax (hcc4006 (lung)): -19.6287 | Amax (hct15 (large_intestine)): -2.41 | Amax (hct116 (large_intestine)): 1.94 | Amax (hec1a (endometrium)): -22.7551 | Amax (hec1b (endometrium)): -58.5184 | Amax (hec59 (endometrium)): -33.0687 | Amax (hec151 (endometrium)): -3.536 | Amax (hec251 (endometrium)): -0.6256 | Amax (hec265 (endometrium)): 2.121 | Amax (hel9217 (haematopoietic_and_lymphoid_tissue)): 11.0391 | Amax (hep3b217 (liver)): 6.257 | Amax (hepg2 (liver)): -38.1063 | Amax (heya8 (ovary)): -39.168 | Amax (hgc27 (stomach)): -60.1752 | Amax (hh (haematopoietic_and_lymphoid_tissue)): -43.6309 | Amax (hle (liver)): -2.411 | Amax (hlf (liver)): 2.5318 | Amax (hmc18 (breast)): -23.3461 | Amax (hmcb (skin)): -32.1017 | Amax (hos (bone)): -5.005 | Amax (hpac (pancreas)): -39.6565 | Amax (hs229t (lung)): -46.3597 | Amax (hs294t (skin)): -3.363 | Amax (hs578t (breast)): -24.7522 | Amax (hs683 (central_nervous_system)): -14.5926 | Amax (hs695t (skin)): -1.411 | Amax (hs739t (breast)): -16.3381 | Amax (hs746t (stomach)): -17.4326 | Amax (hs766t (pancreas)): -19.984 | Amax (hs840t (upper_aerodigestive_tract)): -48.5098 | Amax (hs852t (skin)): -23.0246 | Amax (hs895t (skin)): -52.8812 | Amax (hs936t (skin)): -33.7794 | Amax (hs939t (skin)): -41.6297 | Amax (hs944t (skin)): -2.178 | Amax (hsc2 (upper_aerodigestive_tract)): 2.874 | Amax (ht29 (large_intestine)): -25.1424 | Amax (ht144 (skin)): 4.385 | Amax (ht1080 (soft_tissue)): 5.952 | Amax (ht1197 (urinary_tract)): 6.185 | Amax (ht1376 (urinary_tract)): 5.627 | Amax (ht (haematopoietic_and_lymphoid_tissue)): 15.5049 | Amax (hucct1 (biliary_tract)): -2.064 | Amax (huh1 (liver)): -48.0113 | Amax (hupt3 (pancreas)): -32.9102 | Amax (hupt4 (pancreas)): -9.371 | Amax (hut78 (haematopoietic_and_lymphoid_tissue)): -6.156 | Amax (ialm (lung)): 2.617 | Amax (igr37 (skin)): -4.699 | Amax (igr39 (skin)): 3.52 | Amax (igrov1 (ovary)): 1.295 | Amax (imr32 (autonomic_ganglia)): -46.7636 | Amax (ipc298 (skin)): -1.835 | Amax (istmes1 (pleura)): -16.4542 | Amax (istmes2 (pleura)): -52.8976 | Amax (j82 (urinary_tract)): -1.0373 | Amax (jhh2 (liver)): -0.7698 | Amax (jhh4 (liver)): 0.2039 | Amax (jhh6 (liver)): 2.0754 | Amax (jhos2 (ovary)): 7.671 | Amax (jhos4 (ovary)): 13.7773 | Amax (jm1 (haematopoietic_and_lymphoid_tissue)): -48.4258 | Amax (jmsu1 (urinary_tract)): -46.3166 | Amax (k029ax (skin)): -20.9241 | Amax (kals1 (central_nervous_system)): 3.749 | Amax (karpas299 (haematopoietic_and_lymphoid_tissue)): -53.2153 | Amax (karpas422 (haematopoietic_and_lymphoid_tissue)): 0.8347 | Amax (ke39 (stomach)): -57.8035 | Amax (ke97 (haematopoietic_and_lymphoid_tissue)): -62.2019 | Amax (kg1 (haematopoietic_and_lymphoid_tissue)): 7.475 | Amax (kle (endometrium)): -0.3583 | Amax (kmbc2 (urinary_tract)): -20.7254 | Amax (kmrc1 (kidney)): -29.7335 | Amax (kms12bm (haematopoietic_and_lymphoid_tissue)): -27.7827 | Amax (kms26 (haematopoietic_and_lymphoid_tissue)): -78.7112 | Amax (kns42 (central_nervous_system)): -28.8816
